Key:
β1-receptor = molecular target: T1, β1-receptor (Cavia porcellus, UniProt H0W3H1); assay: in vitro β-adrenergic blocking activity: inhibition of positive chronotropic actions of isoproterenol in isolated guinea pig atrial preparations; conditions: vs isoproterenol, read-out: β1 pA2 (converted)
T1 construct: isolated guinea pig atrial preparations; from tissue; host or cells: guinea pig atria
Description: (§1) Expressed in different terms, a smaller amount of a compound of the invention is required to block isoproterenol-induced elevation in heart rate than is required to block the isoproterenol-induced relaxation of the bronchi. […] Med. Chem., 26, 956-7 (1983) pursuant to which in vitro β-adrenergic blocking activity is determined by the interaction with β1 -receptor via inhibition of the positive chronotropic actions of isoproterenol in isolated guinea pig atrial preparations. β2 potency is determined by using isolated guinea pig tracheal chains contracted with PGF2α and by measuring inhibition of isopreterenol-induced relaxation.

β2 [1] = molecular target: T2, β2 (Cavia porcellus, UniProt Q8K4Z4); assay: β2 potency: inhibition of isoproterenol-induced relaxation of isolated guinea pig tracheal chains contracted with PGF2α; conditions: isolated guinea pig tracheal chains contracted with PGF2α, vs isoproterenol, in vitro; for Kb: read-out: β2 pA2 (converted)
T2 construct: isolated guinea pig tracheal chains; from tissue; host or cells: guinea pig trachea
T2 sequence (Q8K4Z4 whole entry): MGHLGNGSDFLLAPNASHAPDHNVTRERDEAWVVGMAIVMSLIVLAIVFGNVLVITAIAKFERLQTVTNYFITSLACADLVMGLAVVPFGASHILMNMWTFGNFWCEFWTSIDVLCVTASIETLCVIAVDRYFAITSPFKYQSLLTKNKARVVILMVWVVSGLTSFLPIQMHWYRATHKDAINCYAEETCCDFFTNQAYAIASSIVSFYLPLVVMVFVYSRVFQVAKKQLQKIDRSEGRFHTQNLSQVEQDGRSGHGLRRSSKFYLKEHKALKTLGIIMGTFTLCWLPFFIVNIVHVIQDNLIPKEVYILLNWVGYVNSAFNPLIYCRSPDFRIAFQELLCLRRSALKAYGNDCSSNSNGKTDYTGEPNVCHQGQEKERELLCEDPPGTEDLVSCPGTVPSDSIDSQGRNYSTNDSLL
Description: as §1

β2 [2] = assay: as above; conditions: ratio of ED50 for pulmonary effect (β2) : ED50 for cardiac effect (β1); over 1 = cardioselective
Description: as §1

T1 sequence (H0W3H1 1-470): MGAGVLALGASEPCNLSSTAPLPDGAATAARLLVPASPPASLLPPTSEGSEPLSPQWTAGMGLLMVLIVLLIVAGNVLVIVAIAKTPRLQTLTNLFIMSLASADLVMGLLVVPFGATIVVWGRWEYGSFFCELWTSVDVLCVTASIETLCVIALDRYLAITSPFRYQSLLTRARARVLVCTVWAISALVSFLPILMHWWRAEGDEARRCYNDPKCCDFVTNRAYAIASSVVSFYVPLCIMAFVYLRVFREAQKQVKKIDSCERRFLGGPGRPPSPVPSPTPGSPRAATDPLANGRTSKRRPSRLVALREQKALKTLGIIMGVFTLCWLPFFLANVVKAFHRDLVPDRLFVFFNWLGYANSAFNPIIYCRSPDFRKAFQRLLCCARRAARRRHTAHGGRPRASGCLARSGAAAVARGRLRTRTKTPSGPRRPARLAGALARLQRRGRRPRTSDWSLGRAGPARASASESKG

Compound | Kb (β1-receptor) | Kb (β2 [1]) | β2:β1 ratio (cardioselectivity) (β2 [2]) | β2 pA2 (β2 [1])
COc1ccc(CCNC[C@H](O)COc2ccc(-c3nccs3)cc2)cc1OC [Example 2, (S) 2-{p-[3-(3,4-Dimethoxyphenylethyl)amino-2-hydroxypropoxy]phenyl}thiazole] | 58.9 nM | 47.9 µM | 813 | 
OC(CNC1CC1)COc1ccc(-c2nccs2)cc1 (stereo not drawn) [Example 3, 2-[p-(3-Cyclopropylamino-2-hydroxypropoxy)phenyl]thiazole] | 2340 nM | 200 µM | 85 | 
COc1ccc(CCNCC(O)COc2ccc(-c3ncco3)cc2)cc1OC (stereo not drawn) [Example 1, 2-{p-[3-(3,4-Dimethoxyphenethylamino)-2-hydroxypropoxy]phenyl}oxazole] | 1120 nM |  | 19 | 4.67
